Laboratory results from paper PMC5446859 (2017).

Tested on: DNAzyme-aptamer (DNA, aptamer) TGGGTAGGGCGGGTTGGGAAAGTTGGGCACGTGTTGTCTCTCTGTGTCTCGTGCCCTTCGCTAGGCCCAC
Assay: peroxidase activity (TMB), blocker hybridization
Conditions: 120 mM NaCl, 5 mM KCl, 2.5 mM MgCl2; 10 mM Tris-HCl pH 8; hemin prevents hybridization of blocker; qualitative, indirect

- binding: yes
Compound: C=CC1=C(C)C2=Cc3c(C=C)c(C)c4[n]3[Fe]([Cl])[n]3c(c(C)c(CCC(=O)O)c3=CC3=NC(=C4)C(C)=C3CCC(=O)O)=CC1=N2
